One assay concerns the target T1, mTOR-raptor complex (Rattus norvegicus, UniProt P42346+Q8N122).
T1 construct: rows headed: amount of HA-raptor that coimmunoprecipitated with AU1-mTOR; other: extracts incubated with increasing concentrations; amount of HA-raptor that coimmunoprecipitated with AU1-mTOR; other: overexpressed in 293T cells, increasing concentrati; half maximal effect on raptor dissociation from mTOR; other: AU1-mTOR and HA-raptor overexpressed in 293T cells, 1 h; association of AU1-mTOR and HA-rapto
The assay is described as follows: Coimmunoprecipitation of raptor with mTOR, compound added to cell extracts or immune complexes. It counts as binding. The conditions noted are these: for amount of HA-raptor that coimmunoprecipitated with AU1-mTOR: extracts incubated with increasing concentrations. The protocol: 293T cells were transfected with pcDNA3 alone (Vec.) or with a combination of pcDNA3AU1-mTOR, pcDNA33HA-Raptor, and pcDNA33HA-mLST8. Extracts of the cells were incubated with increasing concentrations of FTS before AU1-mTOR was immunoprecipated. Samples of the immune complexes were incubated with [γ-^32P]ATP and recombinant [His^6]PHAS-I, then subjected to SDS-PAGE and transferred to an immobilon membrane. After obtaining a phosphorimage of the membrane to detect ^32P-PHAS-I, the membrane was immunoblotted with PThr^36/45 antibodies. Other samples of the immune complexes were subjected to SDS-PAGE and immunoblots were prepared with antibodies to the HA epitope or to mTOR (see FIG. 13A). Extracts of nontransfected 293T cells were incubated with increasing concentrations of FTS before mTOR was immunoprecipated with mTAb1. A control immunoprecipitation was conducted using nonimmune IgG (NI). Immune complexes were subjected to SDS-PAGE and immunoblots were prepared with antibodies to mLST8, mTOR, and raptor.
Samples of extracts from 293T cells overexpressing AU1-mTOR, HA-raptor, and HA-mLST8 were incubated for 1 h with increasing concentrations of FTS (●, ▴, ▪) or GTS (∘, Δ, □) before immunoprecipitations were conducted with anti-AU1 antibodies. mTOR kinase activity (●, ∘) was determined by measuring ^32P incorporation into [His^6]PHAS-I in immune complex kinases assays performed with [γ-^32P]ATP (see FIG. 14A). The relative amounts of HA-raptor (▴, Δ) and HA-mLST8 (▪, □) that coimmunoprecipitated with AU1-mTOR were determined after immunoblotting with anti-HA antibodies (see FIG. 14B). The results (mean values+S.E. from 5 experiments) are expressed as percentages of the mTOR activity (FIG. 14A) or coimmunoprecipitating proteins (FIG. 14B) from samples incubated without FTS or GTS, and have been corrected for the amounts of AU1-mTOR immunoprecipitated.
293T cells were transfected with pcDNA3 alone (Vec.) or with a combination of pcDNA3AU1-mTOR, pcDNA33HARaptor, and pcDNA33HA-mLST8. AU1-mTOR was immunoprecipitated and samples of the washed immune complexes were at incubated […] for 30 min with no inhibitors or with the following: caffeine (1 mM), FTS (50 μM), LY294002 (10 μM), rapamycin (1 μM) plus FKBP12 (10 μM), and 1 μM wortmannin. To prevent destruction of wortmannin, incubations were conducted in the absence of thiol reducing agents. Samples of the immune complexes were incubated for 10 min with 10 mM MnCl2, 1 mM [γ-^32P]ATP, and 50 μg/ml [His^6]PHAS-I to assess mTOR activity. Other samples were rinsed twice, subjected to SDS-PAGE, and immunoblotted with anti-HA and anti-AU1 antibodies to determine the amounts of HA-raptor and HA-mLST8 associated with AU1-mTOR. The relative amounts of ^32P incorporated into PHAS-I were determined by phosphorimaging (see FIG. 15B).

The test system of a further assay is mTOR-mLST8. The assay is described as follows: Coimmunoprecipitation of mLST8 with mTOR from 293T cells incubated with compound. It counts as cell-based. The conditions noted are these: overexpressed in 293T cells, 1 h. As to the method:
FIG. 11A & 11B represent data showing FTS inhibits PHAS-I phosphorylation and promotes dissociation of the mTOR-raptor complex in 293T cells. 293T cells were transfected with pcDNA3AU1-mTOR, pcDNA33HARaptor, pcDNA33HA-mLST8, and pCMV-Tag3APHAS-I (FIG. 11A). After 18 h the cells were incubated for 1 h with increasing concentrations of FTS before extracts were prepared. A sample of each extract was subjected to SDS-PAGE and immunoblotted to detect PHAS-I or PThr^36/45. AU1-mTOR was also immunoprecipitated from each extract, and immune complexes were subjected to SDSPAGE and immunoblotted with mTAb2, to detect mTOR, and with anti-HA antibodies, to detect HA-mLST8 and HA-raptor. Nontransfected 293T cells were incubated with increasing concentrations of FTS for 1 h before extracts were prepared. mTOR was immunoprecipitated with mTAb1, and samples were subjected to SDS-PAGE.
FIGS. 12A & 12B represent data showing the effects of incubating cells with increasing concentrations of FTS and GTS on mTOR activity and mTOR association with raptor and mLST8. AU1-mTOR, HA-raptor, and HAmLST8 were overexpressed in 293T cells. The cells were then incubated for 1 h with increasing concentrations of FTS (●, ▴, ▪) or GTS (∘, Δ, □) before extracts were prepared. Immunoprecipitations were then conducted with anti-AU1 antibodies. mTOR kinase activity (●, ∘) was determined by measuring ^32P incorporation into [His^6]PHAS-I in immune complex kinases assays performed with [γ-^32P]ATP. The relative amounts of HA-raptor (▴, Δ) and HA-mLST8 (▪, □) that coimmunoprecipitated with AU1-mTOR were determined after immunoblotting with anti-HA antibodies. The results (mean values±S.E. from 3 experiments) are expressed as percentages of the mTOR activity (FIG. 12A) or coimmunoprecipitating proteins (FIG. 12B) from samples incubated without FTS or GTS, and have been corrected for the amounts of AU1-mTOR immunoprecipitated.
To investigate further the inhibitory effects of FTS on mTOR signaling, the effect of the drug on the association of mTOR, raptor, and mLST8 was determined. […]

T1 sequence (Q9BVC4 whole entry): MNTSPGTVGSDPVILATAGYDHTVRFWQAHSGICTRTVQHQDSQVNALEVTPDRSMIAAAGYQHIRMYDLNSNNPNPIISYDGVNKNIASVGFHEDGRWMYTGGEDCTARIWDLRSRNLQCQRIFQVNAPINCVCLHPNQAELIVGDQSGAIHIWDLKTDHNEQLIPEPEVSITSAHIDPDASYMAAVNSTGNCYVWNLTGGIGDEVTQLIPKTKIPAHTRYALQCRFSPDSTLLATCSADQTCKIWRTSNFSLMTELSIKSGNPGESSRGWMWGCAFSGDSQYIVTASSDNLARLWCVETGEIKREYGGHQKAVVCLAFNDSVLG
T1 sequence (Q8N122 whole entry): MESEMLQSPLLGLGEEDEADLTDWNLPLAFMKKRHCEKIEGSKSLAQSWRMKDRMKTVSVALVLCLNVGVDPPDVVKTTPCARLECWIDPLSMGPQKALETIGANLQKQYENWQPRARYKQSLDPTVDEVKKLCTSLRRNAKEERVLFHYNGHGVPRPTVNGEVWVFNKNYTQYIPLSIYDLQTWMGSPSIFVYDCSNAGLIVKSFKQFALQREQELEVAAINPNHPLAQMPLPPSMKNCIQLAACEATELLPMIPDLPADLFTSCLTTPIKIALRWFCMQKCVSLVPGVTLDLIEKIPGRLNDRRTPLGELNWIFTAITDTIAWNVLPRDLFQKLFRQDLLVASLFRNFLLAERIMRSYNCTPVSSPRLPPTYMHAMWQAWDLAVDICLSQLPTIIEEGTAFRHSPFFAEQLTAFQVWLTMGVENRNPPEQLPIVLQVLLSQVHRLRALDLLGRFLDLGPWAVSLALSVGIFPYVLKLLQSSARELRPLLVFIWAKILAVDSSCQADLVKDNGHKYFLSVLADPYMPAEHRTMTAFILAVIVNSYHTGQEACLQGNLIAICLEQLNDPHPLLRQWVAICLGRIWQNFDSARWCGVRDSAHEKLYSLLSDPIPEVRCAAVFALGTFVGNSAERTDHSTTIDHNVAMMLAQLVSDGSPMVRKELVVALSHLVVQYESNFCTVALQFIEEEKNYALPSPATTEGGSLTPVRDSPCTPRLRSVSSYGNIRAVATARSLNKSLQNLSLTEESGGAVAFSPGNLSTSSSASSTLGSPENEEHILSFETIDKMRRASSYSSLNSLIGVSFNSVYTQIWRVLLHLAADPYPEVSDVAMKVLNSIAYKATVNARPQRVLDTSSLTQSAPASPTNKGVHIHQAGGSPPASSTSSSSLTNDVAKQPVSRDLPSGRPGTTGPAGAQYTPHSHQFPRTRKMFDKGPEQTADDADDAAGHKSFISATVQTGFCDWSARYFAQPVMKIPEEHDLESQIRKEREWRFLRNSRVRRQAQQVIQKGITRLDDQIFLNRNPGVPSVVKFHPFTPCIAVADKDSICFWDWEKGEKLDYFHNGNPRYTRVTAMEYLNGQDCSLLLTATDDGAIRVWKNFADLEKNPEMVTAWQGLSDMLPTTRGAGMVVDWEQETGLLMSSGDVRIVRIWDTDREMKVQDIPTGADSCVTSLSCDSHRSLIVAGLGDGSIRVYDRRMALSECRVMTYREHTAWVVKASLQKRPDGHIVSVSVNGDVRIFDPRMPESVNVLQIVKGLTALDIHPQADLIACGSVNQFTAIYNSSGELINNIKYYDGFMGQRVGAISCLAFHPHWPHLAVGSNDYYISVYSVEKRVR

With `CC(C)=CCC/C(C)=C/CC/C(C)=C/CSc1ccccc1C(=O)O` [FTS, farnesylthiosalicylic acid], the “association of AU1-mTOR and HA-raptor” value at mTOR-raptor complex (FTS 50 μM, comparison with other mTOR inhibitors) is “decreased”. The “amount of HA-raptor that coimmunoprecipitated with AU1-mTOR” value at mTOR-raptor complex is recorded as “decreased”. In addition, in the assay on mTOR-mLST8, the “amount of HA-mLST8 associated with AU1-mTOR” value is “did not appear to change”.

For the compound `CC(C)=CCC/C(C)=C/CSc1ccccc1C(=O)O` [GTS, S-geranylthiosalicylic acid, reference compound], at mTOR-raptor complex, the “amount of HA-raptor that coimmunoprecipitated with AU1-mTOR” value is listed as “progressive decreases”. Also, the “amount of HA-mLST8 associated with AU1-mTOR” value with mTOR-mLST8 is listed as “relatively little effect”.

Source of the values: patent US20070037887A1, “Blockade of mtor to prevent a hormonal adaptive response” (University of Virginia Patent Foundation, priority 2003, published 2007).
